Legend:
[1] = system: MMTV-PyMT mice; assay: MMTV-PyMT mouse model of breast cancer, preventive crenolanib treatment; assay type: in vivo; details: for tumor growth (tumor volumes by calipers) vs vehicle-treated mice: measured every 5 d, beginning at day 10, FIGS. 1A, 1B
Protocol: FIGS. 1A to 1C show the ability of the present invention to prevent the development of mammary tumors in a subject genetically predisposed and at high risk of developing breast cancer. MMTV-PyMT mice were administered crenolanib starting at 8 weeks of age, before the development of palpable mammary tumors. FIG. 1A: Mice were treated with 20 mg/kg crenolanib, dissolved in vehicle, intraperitoneally once daily for 35 days. FIG. 1B: Tumor sizes were measured using digital calipers every 5 days during treatment and volumes were calculated using a standard formula ((length×width)/2)). Control mice were treated with vehicle alone. FIG. 1C: At the end of crenolanib treatment, mice were sacrificed, and final tumor weight was determined.
In the MMTV-PyMT mouse model of breast cancer, the Polyoma Virus middle T antigen is expressed under the control of the mouse mammary tumor virus promoter, which results in spontaneous formation of mammary tumors in female mice. This model effectively recapitulates all of the stages of human disease, and mice develop tumors begin developing palpable mammary tumors at approximately 13 weeks of age (Guy, Cardiff, & Muller, 1992). Therefore, the MMTV-PyMT model is a highly reproducible and highly faithful model for the development of TNBC.
Animal Studies. All animal procedures were approved by the Institutional Animal Care and Use Committee at Southern University of Science and Technology. Twelve 8-wk-old female MMTV-PyMT mice were divided into six groups. The two mice in each group were littermates. Each group of mice was treated with crenolanib (20 mg/kg, dissolved in vehicle; Selleck) or vehicle [5% (vol/vol) glycerol formal; Sigma] intraperitoneally once daily for 35 d. Once palpable, tumor sizes were measured with a digital caliper every 5 d, and the volumes were calculated using the formula (length×width)/2. Data were reported as means±SE. At the end of crenolanib treatment, mice were killed, and tumors were harvested and weighted.
In vivo analysis also validated that PDGFRB was prominently expressed in tumor associated stromal cells, including spindle-shaped fibroblasts, but not in tumor tissues by using the polyoma middle T (PyMT) oncogene-driven breast cancer mouse model, which mimics all identifiable stages of human breast cancer progression (28) (data not shown). […] To further analyze the paracrine effects of breast cancer cells on fibroblast expansion, the inventors assessed the ligand secretion by breast cancer cells (data not shown). […] Tumor volumes in crenolanib-treated and untreated mice were measured every 5 d after dosing initiation. […] In addition, tumor weight per mouse at sacrifice (12 wk) was 55% lower in crenolanib-treated mice than in vehicle-treated mice (FIG. 1C).

[2] = system: PDGFRβ; assay: Induced PDGFRβ pathway signaling in human mammary fibroblasts (Western blot); assay type: cell-based
Protocol: SDS/PAGE and Western Blot Analysis. The labeling performance of probe 1 to various bait proteins was characterized by high-resolution SDS/PAGE using the PROTEAN II xi Cell electrophoresis instrument (gel size, 16×20 cm; Bio-Rad) and Coomassie brilliant blue staining. Equal amounts of protein were separated by SDS/PAGE and transferred to membranes. Membranes were blocked in 5% (wt/vol) BSA and then incubated with a primary antibody overnight at 4° C., followed by an incubation with an HRP-conjugated anti-rabbit or anti-mouse secondary antibody (Cell Signaling Technology). Proteins were visualized using a Western ECL Substrate Kit (Bio-Rad). The primary antibodies used in this study were streptavidin-HRP (Thermo Fisher), anti-4G10 (Merck Millipore), anti-His (Cell Signaling Technology), anti-EGFR (Cell Signaling Technology), anti-ERBB2 (Cell Signaling Technology), anti-PDGFRB (Cell Signaling Technology), anti-p-STAT3 (Cell Signaling Technology), anti-p-AKT (Cell Signaling Technology), anti-AKT (Cell Signaling Technology), anti-p-ERK 1/2 (Cell Signaling Technology), anti-ERK 1/2 (Cell Signaling Technology), and anti-β-actin (Beyotime).
In addition, the ability of the present invention to block PDGFR signaling in a conditioned media in vitro system was investigated. […]

[3] = molecular target: PDGFRβ (Homo sapiens, UniProt P09619); details: cited from earlier work
[4] = system: inflammatory breast cancer cells; details: in vitro; cited from earlier work
[5] = system: other known RTKs (e.g., VEGFR or fibroblast growth factor receptor) or serine/threonine kinases (e.g. Abl, Raf); details: at concentrations that are used clinically; cited from earlier work
[6] = in vivo; cited from earlier work
[7] = molecular target: PDGFRα (Homo sapiens, UniProt P16234); details: cited from earlier work
[8] = treatment starting at 8 weeks of age, before palpable mammary tumors

PDGFRβ (Homo sapiens, UniProt P09619), sequence (P09619 33-1106): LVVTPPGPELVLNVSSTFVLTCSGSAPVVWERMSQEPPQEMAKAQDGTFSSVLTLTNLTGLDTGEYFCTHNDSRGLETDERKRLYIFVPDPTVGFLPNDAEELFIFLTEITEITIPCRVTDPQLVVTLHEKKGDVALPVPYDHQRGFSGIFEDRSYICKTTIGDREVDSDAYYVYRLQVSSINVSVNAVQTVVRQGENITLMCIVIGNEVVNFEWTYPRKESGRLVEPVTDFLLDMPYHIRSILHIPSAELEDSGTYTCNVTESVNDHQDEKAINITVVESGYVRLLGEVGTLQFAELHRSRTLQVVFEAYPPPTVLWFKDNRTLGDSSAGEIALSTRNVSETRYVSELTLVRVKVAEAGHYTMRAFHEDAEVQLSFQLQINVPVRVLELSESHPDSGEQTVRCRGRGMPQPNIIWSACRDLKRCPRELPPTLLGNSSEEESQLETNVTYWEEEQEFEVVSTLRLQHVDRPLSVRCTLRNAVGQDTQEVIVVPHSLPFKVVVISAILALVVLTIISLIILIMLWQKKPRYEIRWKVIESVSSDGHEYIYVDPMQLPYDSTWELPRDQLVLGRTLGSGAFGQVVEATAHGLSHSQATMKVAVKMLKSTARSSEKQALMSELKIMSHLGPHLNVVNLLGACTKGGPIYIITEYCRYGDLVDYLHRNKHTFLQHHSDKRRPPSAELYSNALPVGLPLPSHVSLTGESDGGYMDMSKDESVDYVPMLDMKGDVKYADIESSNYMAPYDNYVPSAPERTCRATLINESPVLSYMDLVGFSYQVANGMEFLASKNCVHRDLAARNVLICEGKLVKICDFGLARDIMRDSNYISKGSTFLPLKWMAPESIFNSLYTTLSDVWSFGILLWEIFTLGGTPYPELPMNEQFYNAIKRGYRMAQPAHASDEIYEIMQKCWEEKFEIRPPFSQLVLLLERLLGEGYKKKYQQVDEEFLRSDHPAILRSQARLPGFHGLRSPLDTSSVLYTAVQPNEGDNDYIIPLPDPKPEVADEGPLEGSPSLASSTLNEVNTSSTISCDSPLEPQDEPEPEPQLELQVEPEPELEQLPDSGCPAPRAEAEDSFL
PDGFRα, sequence (P16234 24-1089): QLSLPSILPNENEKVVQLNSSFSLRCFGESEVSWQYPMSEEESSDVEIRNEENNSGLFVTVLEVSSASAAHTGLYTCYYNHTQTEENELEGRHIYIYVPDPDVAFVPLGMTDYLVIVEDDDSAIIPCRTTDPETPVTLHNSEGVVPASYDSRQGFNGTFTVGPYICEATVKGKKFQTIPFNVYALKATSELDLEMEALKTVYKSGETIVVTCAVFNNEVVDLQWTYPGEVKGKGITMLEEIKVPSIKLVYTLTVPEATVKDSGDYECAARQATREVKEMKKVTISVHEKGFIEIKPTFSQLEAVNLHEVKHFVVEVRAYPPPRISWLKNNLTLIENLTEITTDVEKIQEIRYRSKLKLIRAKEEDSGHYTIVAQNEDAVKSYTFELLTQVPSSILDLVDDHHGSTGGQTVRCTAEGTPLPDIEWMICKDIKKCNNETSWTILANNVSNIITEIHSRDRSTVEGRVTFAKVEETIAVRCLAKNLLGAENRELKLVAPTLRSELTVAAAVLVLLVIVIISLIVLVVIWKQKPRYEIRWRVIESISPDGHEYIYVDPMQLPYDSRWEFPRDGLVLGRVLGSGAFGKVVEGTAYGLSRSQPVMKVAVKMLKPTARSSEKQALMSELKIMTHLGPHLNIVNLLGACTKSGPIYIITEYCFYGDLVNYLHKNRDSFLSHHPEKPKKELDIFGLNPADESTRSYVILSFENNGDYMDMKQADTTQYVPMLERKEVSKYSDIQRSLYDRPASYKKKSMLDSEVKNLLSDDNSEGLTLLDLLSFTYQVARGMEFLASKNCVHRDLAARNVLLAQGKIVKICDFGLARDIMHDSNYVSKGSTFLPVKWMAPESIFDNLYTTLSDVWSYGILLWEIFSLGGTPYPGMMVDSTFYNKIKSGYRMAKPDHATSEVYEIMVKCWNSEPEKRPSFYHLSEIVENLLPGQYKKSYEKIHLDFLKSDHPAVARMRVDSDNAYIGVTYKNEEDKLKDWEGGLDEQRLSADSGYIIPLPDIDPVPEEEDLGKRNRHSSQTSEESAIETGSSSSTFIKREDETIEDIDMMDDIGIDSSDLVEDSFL

Compound | tumor weight per mouse at sacrifice, lower than in vehicle-treated mice ([1]; 20 mg/kg intraperitoneally once daily for 35 d from 8 wk of age, at sacrifice (12 wk), FIG. 1C) [%] | tumor growth (tumor volumes by calipers) vs vehicle-treated mice ([1]; 20 mg/kg intraperitoneally once daily for 35 d from 8 wk of age) | tumor growth (tumor volumes by calipers) vs vehicle-treated mice ([1]; 20 mg/kg intraperitoneally once daily for 35 d from 8 wk of age, listed as the present invention) | number of tumors [1, 8] | tumor volume [1, 8] | tumor weight [1, 8] | downstream pathway signaling (phosphorylated AK and ERK 1/2) ([2]; human mammary fibroblasts pre-treated, conditioned media from MDA-MB-468 cells, FIG. 2) | increase in PDGFRβ signaling induced by conditioned media ([2]; human mammary fibroblasts pretreated with crenolanib, conditioned media from TNBC cell line MDA-MB468, FIG. 2 left half) | inhibition of PDGFRβ [3] | growth of inflammatory breast cancer cells [4] | inhibition of other known RTKs or serine/threonine kinases [5] | oral bioavailability [6] | inhibition of PDGFRα [7]
CC1(COc2ccc3c(c2)ncn3-c2ccc3cccc(N4CCC(N)CC4)c3n2)COC1 [crenolanib, 4-Piperidinamine, 1-[2-[5-[(3-methyl-3-oxetanyl)methoxy]-1H-benzimidazol-1-yl]-8-quinolinyl]] | 55 | grew significantly more slowly | significantly prevented tumor growth | reduced | reduced | reduced | inhibited | blocked this increased signaling | highly selective inhibitor | inhibits the growth | does not inhibit | – | –
crenolanib besylate | – | – | – | – | – | – | – | – | ability to inhibit | – | – | orally bioavailable | ability to inhibit
